From ChEMBL document CHEMBL4196117, “PK/PD Disconnect Observed with a Reversible Endothelial Lipase Inhibitor” (ACS Med Chem Lett, 2018)
pIC50: −log10 of the molar value.

What was measured:
[1] = Cmin in C57BL/6J mouse at 50 mg/kg, po administered once daily for 5 days measured 24 hrs post last dose; type: ADME, organism-based; conditions: in vivo, read-out: Cmin
[2] = Total AUC in CD1 mouse at 1 mg/kg, po administered as bolus dose; type: ADME, organism-based; parameters: dose 1 mg/kg, route oral, time AUCmax; conditions: in vivo
[3] = Ratio of fCmax in C57BL/6J mouse to IC50 for recombinant mouse endothelial lipase expressed in HEK293F cells using HDL as substrate; type: ADME, cell-based
Hamster = experiment: fCmax in hamster at 50 mg/kg, po qd for 7 days measured 6 hrs post dose on day 5; type: ADME, organism-based; conditions: cricetinae, in vivo
[4] = Ratio of fCmin in C57BL/6J mouse to IC50 for recombinant mouse endothelial lipase expressed in HEK293F cells using HDL as substrate; type: ADME, cell-based
[5] = Protein binding in CD1 mouse plasma assessed as unbound fraction at 1 mg/kg, po administered as bolus dose; type: ADME, organism-based
[6] = Tmax in CD1 mouse at 1 mg/kg, po administered as bolus dose; type: ADME, organism-based; conditions: in vivo
[7] = Total AUC in CD1 mouse at 1 mg/kg, iv administered as bolus dose; type: ADME, organism-based; parameters: dose 1 mg/kg, time AUCmax, route intravenous; conditions: in vivo
[8] = Half life in CD1 mouse at 1 mg/kg, po administered as bolus dose; type: ADME, organism-based; conditions: in vivo
[9] = Protein binding in CD1 mouse plasma at 1 mg/kg, po administered as bolus dose; type: ADME, organism-based; conditions: read-out: PPB (converted)
[10] = Cmax in C57BL/6J mouse at 50 mg/kg, po administered once daily for 5 days measured 6 hrs post last dose; type: ADME, organism-based; parameters: dose 50 mg/kg, route oral; conditions: in vivo
Endothelial lipase [11] = target: T1, Endothelial lipase (Homo sapiens, UniProt Q9Y5X9); experiment: Inhibition of endothelial lipase in human HT1080 cells using HDL as substrate pretreated for 10 mins followed by substrate addition and measured after 30 mins by LC/MS/MS analysis; type: cell-based
T1 sequence (Q9Y5X9 whole entry): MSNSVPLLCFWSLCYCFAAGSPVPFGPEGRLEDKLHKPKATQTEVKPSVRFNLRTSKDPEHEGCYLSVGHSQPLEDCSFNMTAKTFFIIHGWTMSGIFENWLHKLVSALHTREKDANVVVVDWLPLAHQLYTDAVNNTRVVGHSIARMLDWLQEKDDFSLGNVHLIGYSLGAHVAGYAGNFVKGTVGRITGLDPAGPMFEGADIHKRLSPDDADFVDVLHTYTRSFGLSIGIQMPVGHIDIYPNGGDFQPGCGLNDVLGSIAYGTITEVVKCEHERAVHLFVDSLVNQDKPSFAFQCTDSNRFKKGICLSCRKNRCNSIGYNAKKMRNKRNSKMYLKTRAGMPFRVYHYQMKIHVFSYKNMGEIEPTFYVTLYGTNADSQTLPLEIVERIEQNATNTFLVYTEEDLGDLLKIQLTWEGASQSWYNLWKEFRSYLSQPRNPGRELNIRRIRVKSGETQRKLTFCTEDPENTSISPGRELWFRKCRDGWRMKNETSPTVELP

Mus musculus [12] = experiment: Ratio of total AUC in CD1 mouse at 50 mg/kg, po administered as bolus dose to total AUC in CD1 mouse at 1 mg/kg, po administered as bolus dose; type: ADME, organism-based; conditions: in vivo
[13] = Protein binding in hamster plasma at 50 mg/kg, po qd for 7 days measured 6 hrs post dose on day 5; type: ADME, organism-based; conditions: cricetinae, read-out: PPB (converted)
Mus musculus [14] = experiment: fCmax in C57BL/6J mouse at 50 mg/kg, po administered once daily for 5 days measured 6 hrs post last dose; type: ADME, organism-based; conditions: in vivo
[15] = Drug level in CD1 mouse at 1 mg/kg, po administered as bolus dose measured after 24 hrs; type: ADME, organism-based; conditions: in vivo, read-out: Drug uptake
Mus musculus [16] = experiment: fCmin in C57BL/6J mouse at 50 mg/kg, po administered once daily for 5 days measured 24 hrs post last dose; type: ADME, organism-based; conditions: in vivo
Mus musculus [17] = experiment: Ratio of total AUC in CD1 mouse at 10 mg/kg, po administered as bolus dose to total AUC in CD1 mouse at 1 mg/kg, po administered as bolus dose; type: ADME, organism-based; conditions: in vivo
[18] = Half life in CD1 mouse at 1 mg/kg, iv administered as bolus dose; type: ADME, organism-based; conditions: in vivo
[19] = Ratio of fCmax in hamster to IC50 for recombinant mouse endothelial lipase expressed in HEK293F cells using HDL as substrate; type: ADME, cell-based
[20] = Cmax in CD1 mouse at 1 mg/kg, iv administered as bolus dose; type: ADME, organism-based; parameters: dose 1 mg/kg, route intravenous; conditions: in vivo
Mus musculus [21] = experiment: Free drug level in CD1 mouse at 1 mg/kg, po administered as bolus dose measured after 24 hrs; type: ADME, organism-based; conditions: in vivo
[22] = Oral bioavailability in CD1 mouse at 1 mg/kg administered as bolus dose; type: ADME, organism-based; conditions: in vivo
[23] = Tmax in CD1 mouse at 1 mg/kg, iv administered as bolus dose; type: ADME, organism-based; conditions: in vivo
[24] = Cmax in CD1 mouse at 1 mg/kg, po administered as bolus dose; type: ADME, organism-based; parameters: dose 1 mg/kg, route oral; conditions: in vivo
Endothelial lipase [25] = target: T1, Endothelial lipase; experiment: Inhibition of endothelial lipase in human HT1080 cells using PED-A1 containing DMPG vesicles as substrate pretreated for 20 mins followed by substrate addition and measured every 20 secs for 10 mins by fluorescence assay; type: cell-based

- concentration at 24 h [1]: 57 µM
- AUC [2]: 292 µM·h
- Ratio [3]: 55
- fCmax (Hamster): 5.1 µM
- Ratio [4]: 13
- fraction unbound [5]: 0.023
- Tmax [6]: 0.5 h
- AUC [7]: 304 µM·h
- half-life [8]: 13 h
- fraction unbound [9]: 0.023
- Cmax [10]: 238 µM
- pIC50 (Endothelial lipase [11]): 6.66
- Ratio AUC (Mus musculus [12]): 18
- fraction unbound at 6 h [13]: 0.016
- fCmax (Mus musculus [14]): 5.5 µM
- concentration at 24 h [15]: 4.31 µM
- fCmin (Mus musculus [16]): 1.3 µM
- Ratio AUC (Mus musculus [17]): 7.5
- half-life [18]: 13 h
- Ratio [19]: 51
- Cmax [20]: 39 µM
- Drug uptake(free) (Mus musculus [21]): 99 nM
- bioavailability [22]: 96%
- Tmax [23]: 3 min
- Cmax [24]: 15 µM
- pIC50 (Endothelial lipase [25]): 6.83
Compound: CCN1CC(C(=O)NC(C)CCc2ccc(Cl)c(Cl)c2)=C(O)C1=O (stereo in doubt; 7c)
